As a reminder, the IC50 is the concentration at which inhibition is half-maximal.

This note sets out measurements from patent US20240199576A1, “NOVEL CYCLOPENTA[C]PYRROL NEGATIVE ALLOSTERIC MODULATORS OF NR2B” (Novartis AG, priority 2021, published 2024).

The target of test [1] is hERG (Homo sapiens (Human), UniProt Q12809). The experiment in a line: hERG Qpatch assay. The format is cell-based. As to conditions: hERG expressing CHO-K1 cells, automated patch clamp, tail current. The procedure:
This assay was performed by the method described in Skepper et al., J. Med. Chem. 2020, 63, 7773-7816:
hERG expressing cell lines were produced in-house at Novartis using CHO-K1 T-Rex inducible plasmid system (Invitrogen) as described previously (Cao et al., Assay Drug Dev. Technol. 2010, 8, 766-780). Cell lines were maintained in Ham's F12 nutrient mixture containing 10% FBS, blasticidin ([…]; InvivoGen), hygromycin B ([…]; InvivoGen), Zeocin ([…], Invitrogen), and neomycin ([…], Invitrogen) using SelecT automated cell culture system (TAP Biosystems, Cambridge, U.K.). hERG and hCav1.2 channels expression was induced with tetracycline (0.25-1 μg/mL, Invitrogen) at least 24 h prior to the experiment.
hERG currents were recorded using the Qpatch automated patch clamp systems (Sophion Bioscience Inc., North Brunswick, NJ) in the whole (single) cell configuration. hERG expressing CHO-K1 cells were harvested with Detachin (Genlantis) and stored in the modified serum-free SFM-2 media (Life Technologies) at room temperature. The extracellular solution contained (in mM) NaCl (145), KCl (4), MgCl2 (1), CaCl2 (2), and HEPES (10), pH 7.4, with NaOH. The intracellular solution contained KCl (135), MgCl2 (1.75), CaCl2 (5.4), EGTA (10), K2-ATP (4), and HEPES (10), pH 7.2, with KOH. After whole cell configuration was achieved, the cell was held at −90 mV, and a 0.1 s pulse to −50 mV was delivered to measure the leaking current, which was subtracted from the tail current online. Then the cell was depolarized to +20 mV for 4 s (prepulse), followed by a 4 s test pulse to −50 mV to reveal the hERG tail current. To monitor changes in the current amplitude, this voltage protocol was repeatedly applied every 20 s. Test compounds were first diluted in DMSO for six dose-response experiments and then dissolved in the extracellular solution using Freedom EVO liquid handling robotic system (Tecan, Männedorf, Switzerland). The final DMSO concentration in samples was 0.3% v/v. Amitriptyline (Sigma) was tested as a positive control. Data were analyzed using in-house developed MatLab-based program (MathWorks, Natick, MA).
Background: hERG is a cardiac potassium channel; its block is linked to QT prolongation.

Test [2] deals with NR2B (Rattus norvegicus (Rat), UniProt Q00960). The experiment in a line: NR2B rat cortical neuron calcium influx assay. The format is cell-based. As to conditions: rat cortical neurons, glutamate and glycine stimulated calcium influx, 2 hours compound incubation. The text has this: Example 1: NR2B Rat Cortical Neuron Calcium Influx Assay Protocol
Embryonic day 18 timed pregnant Sprague Dawley rats were euthanized according to Institutional Animal Care and Use Committee (IACUC) protocol. After cutting medially through the skin and exposing the uterus and embryos, fetuses were removed and placed in cold Hibernate medium. Each embryo's brain was extracted and cerebral cortices were isolated by removing the midbrain and meninges. The dissected cortices were then dissociated into the neurons using papain dissociation system (Worthington Biochemical Corporation) according the manufacturer's protocol.
Dissociated neurons were counted and plated into 384-well poly-D-lysine coated plates (Corning® BioCoat™) at a density of 20,000 cells/well in 30 μL of Neurobasal/B27 complete medium. Neurons were cultured at 37° C. for 2 days. On the assay day, medium was removed and cells were incubated with 20 μL/well of calcium dye (Calcium 6 Assay Kit, Molecular Devices) suspended in HBSS with 1.8 mM Ca^2+ (Ca-HBSS) according to the manufacturer's instruction.
Compounds of interest from 10 mM stock were serially diluted into 3× of desired concentrations in 1.8 mM Ca-HBSS, and 10 μL were added to the wells. Compound and the neurons were incubated at 37° C. for 2 hours in the dark.
On FDSS7000EX (Hamamatsu Photonics), a fluorescence measuring instrument, 10 μL of 4× ligand solution containing glutamate and glycine made in 1.8 mM Ca^2+-HBSS were added to each well. The fluorescent signals were collected before and after the addition of ligands for a total of 2 minutes. The data were converted to a ratio of the peak fluorescence to the fluorescence at the beginning of the measurement.
Each data point was measured in duplicates. Dose response curves were used to identify IC50 and maximal inhibition values. IC50 represents the concentration in μM of compound at which there is a half-maximal compound effect. Maximal inhibition of a compound is expressed as a percent of the highest inhibition of activity over a no compound control.

hERG, sequence (Q12809 whole entry): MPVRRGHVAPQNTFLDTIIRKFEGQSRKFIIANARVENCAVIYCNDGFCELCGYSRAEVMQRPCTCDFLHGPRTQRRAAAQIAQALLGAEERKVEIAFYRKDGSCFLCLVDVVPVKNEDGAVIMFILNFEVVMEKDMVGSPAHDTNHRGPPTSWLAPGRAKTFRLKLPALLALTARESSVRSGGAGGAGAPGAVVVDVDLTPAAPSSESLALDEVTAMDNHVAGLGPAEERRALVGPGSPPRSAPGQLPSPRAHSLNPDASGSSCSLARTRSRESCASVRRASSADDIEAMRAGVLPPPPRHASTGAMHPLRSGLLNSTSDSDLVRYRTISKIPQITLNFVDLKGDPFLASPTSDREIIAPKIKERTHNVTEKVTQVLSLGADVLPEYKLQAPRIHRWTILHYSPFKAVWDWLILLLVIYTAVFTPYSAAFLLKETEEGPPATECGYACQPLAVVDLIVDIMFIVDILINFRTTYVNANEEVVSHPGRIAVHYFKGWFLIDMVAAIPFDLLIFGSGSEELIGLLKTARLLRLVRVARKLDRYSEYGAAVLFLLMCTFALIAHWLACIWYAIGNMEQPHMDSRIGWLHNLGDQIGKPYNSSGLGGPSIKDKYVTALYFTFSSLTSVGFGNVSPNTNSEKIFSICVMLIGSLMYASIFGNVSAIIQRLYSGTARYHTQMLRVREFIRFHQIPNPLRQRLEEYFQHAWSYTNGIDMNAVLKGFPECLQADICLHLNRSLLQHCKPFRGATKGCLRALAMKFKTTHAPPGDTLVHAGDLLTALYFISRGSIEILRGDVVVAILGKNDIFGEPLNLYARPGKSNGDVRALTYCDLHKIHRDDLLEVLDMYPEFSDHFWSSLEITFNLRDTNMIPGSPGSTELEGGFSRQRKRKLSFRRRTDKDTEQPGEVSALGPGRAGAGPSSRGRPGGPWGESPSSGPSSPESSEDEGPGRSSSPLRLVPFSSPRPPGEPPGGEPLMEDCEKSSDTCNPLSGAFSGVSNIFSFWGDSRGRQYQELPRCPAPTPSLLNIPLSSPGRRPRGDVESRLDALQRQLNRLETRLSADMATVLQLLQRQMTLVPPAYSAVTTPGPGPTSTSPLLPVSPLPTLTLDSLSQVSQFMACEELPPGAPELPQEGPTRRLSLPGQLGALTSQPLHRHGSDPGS
NR2B, sequence (Q00960 27-1482, other chains not shown): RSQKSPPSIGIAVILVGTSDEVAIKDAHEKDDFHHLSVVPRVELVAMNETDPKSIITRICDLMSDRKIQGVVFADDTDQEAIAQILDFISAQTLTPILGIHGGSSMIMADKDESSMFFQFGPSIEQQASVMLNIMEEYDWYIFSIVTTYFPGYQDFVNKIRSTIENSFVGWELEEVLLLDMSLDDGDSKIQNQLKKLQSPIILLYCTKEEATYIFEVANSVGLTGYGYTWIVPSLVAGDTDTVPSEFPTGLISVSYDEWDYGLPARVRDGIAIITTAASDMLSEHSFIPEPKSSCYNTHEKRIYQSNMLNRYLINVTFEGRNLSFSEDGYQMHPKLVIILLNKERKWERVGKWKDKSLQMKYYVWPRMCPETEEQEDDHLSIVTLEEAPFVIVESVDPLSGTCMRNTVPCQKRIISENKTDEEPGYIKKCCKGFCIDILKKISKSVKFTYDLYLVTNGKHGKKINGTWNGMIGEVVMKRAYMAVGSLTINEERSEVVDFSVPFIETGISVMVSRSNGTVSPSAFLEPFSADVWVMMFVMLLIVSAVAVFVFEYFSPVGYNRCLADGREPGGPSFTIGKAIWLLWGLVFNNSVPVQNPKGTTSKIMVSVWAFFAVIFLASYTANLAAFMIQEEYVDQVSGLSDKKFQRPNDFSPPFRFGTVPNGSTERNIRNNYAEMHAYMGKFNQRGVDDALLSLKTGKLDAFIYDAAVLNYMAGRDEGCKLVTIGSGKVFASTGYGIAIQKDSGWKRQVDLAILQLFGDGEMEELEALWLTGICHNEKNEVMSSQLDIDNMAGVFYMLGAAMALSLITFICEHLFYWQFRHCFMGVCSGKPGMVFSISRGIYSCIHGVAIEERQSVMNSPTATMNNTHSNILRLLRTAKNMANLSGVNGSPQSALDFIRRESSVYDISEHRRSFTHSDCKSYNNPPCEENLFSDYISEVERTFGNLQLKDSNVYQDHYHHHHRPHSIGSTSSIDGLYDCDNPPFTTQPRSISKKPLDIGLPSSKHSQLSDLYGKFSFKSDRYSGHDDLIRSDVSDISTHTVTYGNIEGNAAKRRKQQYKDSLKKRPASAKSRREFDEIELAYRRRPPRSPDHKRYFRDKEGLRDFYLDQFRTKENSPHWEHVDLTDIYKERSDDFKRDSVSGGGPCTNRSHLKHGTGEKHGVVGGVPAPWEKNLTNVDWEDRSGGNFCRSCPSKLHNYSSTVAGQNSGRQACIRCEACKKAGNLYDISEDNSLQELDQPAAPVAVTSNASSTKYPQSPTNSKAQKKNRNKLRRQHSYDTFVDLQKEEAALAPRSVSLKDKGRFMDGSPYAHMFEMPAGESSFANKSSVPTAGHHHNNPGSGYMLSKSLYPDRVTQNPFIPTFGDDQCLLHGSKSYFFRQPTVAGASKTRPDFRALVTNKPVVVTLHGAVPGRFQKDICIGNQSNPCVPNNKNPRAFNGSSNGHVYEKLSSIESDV

As for `Oc1c(F)cc(C(O)CN2C[C@H]3C[C@H](Oc4ccccc4)C[C@H]3C2)cc1F` (mixture of isomers) [Mixture of two isomers at benzylic position, reference compound], in test [1], the IC50 turned out to be 2800 nM.
On to `Oc1ccc(C(O)CN2C[C@H]3C[C@H](Oc4ccccc4F)C[C@@]3(O)C2)nc1` (single isomer, unassigned) [Example 1B], for which the IC50 came out at 0.74 nM in test [2] and 14000 nM in test [1].
With `Oc1ccc(C(O)CN2C[C@H]3C[C@H](Oc4ccccc4F)C[C@@]3(O)C2)nc1` (single isomer, unassigned) [Example 1C], the half-inhibitory concentration (IC50) came out at 1.1 nM in test [2] and 22000 nM in test [1].
For `Oc1ccc(C(O)CN2C[C@H]3C[C@H](Oc4ccccc4F)[C@H](O)[C@@]3(O)C2)nc1` (single isomer, unassigned) [Example 2A], the half-inhibitory concentration (IC50) in test [2] came out at 11 nM.
Still for that read-out and setting: the same measure for `Oc1ccc(C(O)CN2C[C@H]3C[C@H](Oc4ccccc4F)[C@H](O)[C@@]3(O)C2)nc1` (single isomer, unassigned) [Example 2B]: 2.2 nM.
As for `Oc1ccc(C(O)CN2C[C@@H]3C[C@@H](Oc4ccccc4F)[C@@H](O)[C@]3(O)C2)nc1` (single isomer, unassigned) [Example 2C], in test [2], the IC50 is 770 nM.
Still for that read-out and setting: under `Oc1ccc(C(O)CN2C[C@@H]3C[C@@H](Oc4ccccc4F)[C@@H](O)[C@]3(O)C2)nc1` (single isomer, unassigned) [Example 2D] stands 950 nM; under `Oc1ccc(C(O)CN2C[C@H]3C[C@H](Oc4ccccc4)[C@H](O)[C@@]3(O)C2)nc1Cl` (single isomer, unassigned) [Example 4C], 31 nM; under `Oc1ccc(C(O)CN2C[C@H]3C[C@H](Oc4ccccc4)[C@H](O)[C@@]3(O)C2)nc1Cl` (single isomer, unassigned) [Example 4D], 35 nM.
Still for that read-out and setting: under `Oc1c(F)cc(C(O)CN2C[C@@H]3C[C@@H](Oc4ccccc4)[C@@H](O)[C@]3(O)C2)cc1F` (single isomer, unassigned) [Example 5C] stands 900 nM; under `Oc1c(F)cc(C(O)CN2C[C@@H]3C[C@@H](Oc4ccccc4)[C@@H](O)[C@]3(O)C2)cc1F` (single isomer, unassigned) [Example 5D], 3700 nM.
In the case of `Oc1ccc(C(O)CN2C[C@H]3C[C@H](Oc4ccccc4)C[C@@]3(O)C2)nc1` (single isomer, unassigned) [Example 7C], the values for the IC50 in test [2] and in test [1] were 2.4 nM and 28000 nM, respectively.
`Oc1ccc(C(O)CN2C[C@H]3C[C@H](Oc4ccccc4)C[C@@]3(O)C2)nc1` (single isomer, unassigned) [Example 7D]: the concentration for half-maximal inhibition (IC50) in test [2] was 3.2 nM; in test [1], 19000 nM.
With `Oc1ccc(C(O)CN2C[C@H]3C[C@H](Oc4ccccc4)C[C@H]3C2)nc1` (single isomer, unassigned) [Table 3 from WO 2016/049165 (isomer 1), reference compound], in test [1], the half-inhibitory concentration (IC50) was determined as 2000 nM.
In test [1], `Oc1ccc(C(O)CN2C[C@H]3C[C@H](Oc4ccccc4)C[C@H]3C2)nc1` (single isomer, unassigned) [Table 3 of WO 2016/049165 (isomer 2), reference compound] returned an IC50 of 2700 nM.
Consider `Oc1ccc(C(O)CN2C[C@@H]3C[C@@H](Oc4ccccc4)[C@@H](O)[C@]3(O)C2)nc1F` (some centres unmarked) [Example 3A], for which the IC50 in test [2] is > 10000 nM.
Still for that read-out and setting: the same measure for `Oc1ccc(C(O)CN2C[C@H]3C[C@H](Oc4ccccc4)[C@H](O)[C@@]3(O)C2)nc1F` (some centres unmarked) [Example 3D]: 24 nM.
Same read-out and setting: under `Oc1ccc(C(O)CN2C[C@@H]3C[C@@H](Oc4ccccc4)[C@@H](O)[C@]3(O)C2)nc1Cl` (some centres unmarked) [Example 4A] stands > 10000 nM; under `Oc1c(F)cc(C(O)CN2C[C@H]3C[C@H](Oc4ccccc4)[C@H](O)[C@@]3(O)C2)cc1F` (some centres unmarked) [Example 5B], 28 nM.
Consider `Oc1c(F)cc([C@@H](O)CN2C[C@H]3C[C@H](Oc4ccccc4)C[C@@]3(O)C2)cc1F` [Example 10C], for which the values for the concentration for half-maximal inhibition (IC50) in test [2] and in test [1] were 14 nM and 22000 nM, respectively.
For `Oc1c(F)cc([C@H](O)CN2C[C@H]3C[C@H](Oc4ccccc4)C[C@@]3(O)C2)cc1F` [Example 10D, (3aS,5S,6aR)-2-((S)-2-(3,5-difluoro-4-hydroxyphenyl)-2-hydroxyethyl)-5-phenoxyhexahydrocyclopenta[c]pyrrol-3a(1H)-ol] the same measures were 6 nM and 25000 nM.
With `Oc1ccc(CCN2C[C@H]3C[C@H](Oc4ccc(F)cc4F)C[C@@]3(O)C2)nc1` [Example 19], in test [2], the IC50 turned out to be 18 nM.
Same read-out and setting: the same measure for `Oc1ccc(CCN2C[C@H]3C[C@H](Oc4cccnc4F)C[C@@]3(O)C2)nc1` [Example 20]: 820 nM.
